Experimental data as given in patent EP4603105A1, “PHARMACEUTICAL COMPOSITION CONTAINING CYCLIC COMPOUND HAVING SELECTIVE KRAS INHIBITORY EFFECT AGAINST HRAS AND NRAS” (CHUGAI SEIYAKU KABUSHIKI KAISHA, priority 2022, dated 2024).
*1 amine or outer side, *2 acyl side, *3 side chain or, on linkers, in order; H or OH if unused. Where a SMILES comes first, the peptide text is derived from it. Bridges are numbered along the chain shown (N, C = ends). [ ]: non-standard residue; d: D form. The star is where a group is joined. hPhe(3,5-F2-4-CF3) = N[C@@H](CCc1cc(F)c(C(F)(F)F)c(F)c1)C(=O)O; hPhe(3-Cl-4-CF3) = N[C@@H](CCc1ccc(C(F)(F)F)c(Cl)c1)C(=O)O; X18 = CCCCN([C@@H](Cc1ccc(C(F)(F)F)cc1)C(=O)[*:2])[*:1]; NPrPhe(4-CF3) = CCCN[C@@H](Cc1ccc(C(F)(F)F)cc1)C(=O)O; NEtPhe(4-Me) = CCN[C@@H](Cc1ccc(C)cc1)C(=O)O; NMeGly(cPent) = CN[C@H](C(=O)O)C1CCCC1; Hyp = O=C(O)[C@@H]1C[C@@H](O)CN1; NMeD = CN[C@@H](CC(=O)O)C(=O)O; NMeL = CN[C@@H](CC(C)C)C(=O)O; Morpholide = C1CN(*)CCO1; NMeA = CN[C@@H](C)C(=O)O; Ac5c = NC1(C(=O)O)CCCC1; Aze = O=C(O)[C@@H]1CCN1; Sar = CNCC(=O)O

Legend:
[1] = target: GDP-bound NRAS wild-type protein (Homo sapiens, UniProt P01111); experiment: Binding to NRAS by surface plasmon resonance (SPR), KD and KD ratio to KRAS
GDP-bound NRAS wild-type protein, sequence (P01111 whole entry): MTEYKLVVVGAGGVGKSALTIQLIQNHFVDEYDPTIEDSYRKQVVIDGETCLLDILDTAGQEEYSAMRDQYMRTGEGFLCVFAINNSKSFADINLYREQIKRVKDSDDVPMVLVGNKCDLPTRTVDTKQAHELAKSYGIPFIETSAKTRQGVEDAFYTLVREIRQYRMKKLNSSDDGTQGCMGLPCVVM
Summary of the method: (§1)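 Compound binding is evaluated by SPR single-cycle kinetics, with concentrations added intermittently from low to high for 75 s each. Target surfaces carry GDP-loaded biotinylated Avi-RAS at about 100–300 RU, regenerated after each cycle; temperature 30°C. A 1:1 binding model gives KD.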

[2] = tested on: human lung cancer strain NCI-H441; assay type: cell-based
Summary of the method: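 Proliferation was scored by […] measured after the reagent was added to cultures kept at 37°C in 5% carbon dioxide.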

[3] = target: HRAS wild-type protein (Homo sapiens, UniProt P01112); experiment: Binding to HRAS by surface plasmon resonance (SPR), KD and KD ratio to KRAS
HRAS wild-type protein, sequence (P01112 whole entry): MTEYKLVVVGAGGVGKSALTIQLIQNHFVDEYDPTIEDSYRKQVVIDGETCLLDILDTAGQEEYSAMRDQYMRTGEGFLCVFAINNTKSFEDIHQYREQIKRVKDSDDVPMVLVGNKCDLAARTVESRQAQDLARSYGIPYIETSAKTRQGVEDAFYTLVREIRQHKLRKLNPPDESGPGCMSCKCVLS
Summary of the method: as §1

[4] = ratio of KD value for GDP-bound NRAS wild-type protein to KD value for KRAS (SPR)
[5] = ratio of KD value for HRAS wild-type protein to KD value for KRAS (SPR)
[6] = ratio of KD for GDP-bound NRAS wild-type protein to KD for KRAS
[7] = ratio of KD for HRAS wild-type protein to KD for KRAS
[8] = ratio of the KD value with respect to GDP-bound NRAS wild-type protein to the KD value with respect to KRAS
[9] = ratio of the KD value with respect to HRAS wild-type protein to the KD value with respect to KRAS

| Structure (SMILES) | NRAS /KRAS [1, 4] | IC50 [2] [µM] | HRAS /KRAS [3, 5] | NRAS /KRAS [1, 6] | HRAS /KRAS [3, 7] | NRAS /KRAS [1, 8] | HRAS /KRAS [3, 9] |
| --- | --- | --- | --- | --- | --- | --- | --- |
| CCO[C@@H]1C[C@H]2C(=O)NC3(CC(C)(C)C3)C(=O)N(C)[C@@H](C3CCCC3)C(=O)N(C)[C@H](C(=O)N(C)C)CC(=O)N(C)[C@@H](CC3CC3)C(=O)N[C@@H]([C@@H](C)CC)C(=O)N(C)CC(=O)N(C)[C@H]3C/C=C\CCN(C3=O)[C@@H](Cc3ccc(C(F)(F)F)cc3)C(=O)N(C)CC(=O)N[C@@H](CCc3cc(F)c(C(F)(F)F)c(F)c3)C(=O)N2C1 [PP1568] | A (a compound having 10 or more and less than 20 is denoted as A) | 0.0022 | A (a compound having 10 or more and less than 20 is denoted as A) | – | – | – | – |
| CCO[C@@H]1C[C@H]2C(=O)NC3(CCCC3)C(=O)N(C)[C@@H](C3CCCC3)C(=O)N(C)[C@H](C(=O)N3CCOCC3)CC(=O)N(C)[C@@H](CC(C)C)C(=O)N[C@@H]([C@@H](C)CC)C(=O)N(C)CC(=O)N(C)[C@H]3C[C@@H](C)CCN(C3=O)[C@@H](Cc3ccc(C(F)(F)F)cc3)C(=O)N(C)CC(=O)N[C@@H](CCc3cc(F)c(C(F)(F)F)c(F)c3)C(=O)N2C1 [PP1024] | – | 0.0127 | – | B (a compound having 3 or more and less than 10 is denoted as B) | B (a compound having 3 or more and less than 10 is denoted as B) | – | – |
| CCO[C@@H]1C[C@H]2C(=O)NC3(CC(C)(C)C3)C(=O)N(C)[C@@H](C(CC)CC)C(=O)N(C)[C@H](C(=O)N(C)C)CC(=O)N(C)[C@@H](CC)C(=O)N[C@@H]([C@@H](C)CC)C(=O)N(C)CC(=O)N(C)[C@H]3C/C=C\CCN(C3=O)[C@@H](Cc3ccc(C)cc3)C(=O)N(C)CC(=O)N[C@@H](CCc3ccc(Cl)c(Cl)c3)C(=O)N2C1 [PP2188] | – | 0.0267 | – | – | – | AA (a compound having 20 or more is denoted as AA) | A (a compound having 10 or more and less than 20 is denoted as A) |
| CC[C@H](C)[C@@H]1NC(=O)[C@H](CC(C)C)N(C)C(=O)C[C@@H](C(=O)N2CCOCC2)N(C)C(=O)[C@H](C2CCCCC2)N(C)C(=O)C2(CCCC2)NC(=O)[C@@H]2CCCN2C(=O)[C@H](CCc2cc(F)c(C(F)(F)F)c(F)c2)NC(=O)CN(C)C(=O)[C@H](Cc2ccc(C(F)(F)F)cc2)N2CCCC[C@@H](C2=O)N(C)C(=O)CN(C)C1=O [PP0567] | – | 0.0083 | – | – | – | B (a compound having 3 or more and less than 10 is denoted as B) | B (a compound having 3 or more and less than 10 is denoted as B) |
| CC[C@H](C)[C@@H]1NC(=O)[C@H](CC)N(C)C(=O)C[C@@H](C(=O)N(C)C)N(CC)C(=O)[C@H](C2CCCC2)N(C)C(=O)C2(CCC2)NC(=O)[C@@H]2CCCN2C(=O)[C@H](CCc2cc(F)c(C(F)(F)F)c(F)c2)NC(=O)CN(C)C(=O)[C@H](Cc2ccc(C(F)(F)F)cc2)N2CC/C=C\C[C@@H](C2=O)N(C)C(=O)CN(C)C1=O [PP1106] | – | 0.155 | – | A (a compound having 10 or more and less than 20 is denoted as A) | A (a compound having 10 or more and less than 20 is denoted as A) | – | – |
| CCO[C@@H]1C[C@H]2C(=O)NC3(CC(C)(C)C3)C(=O)N(C)[C@@H](C(CC)CC)C(=O)N(C)[C@H](C(=O)N(C)C)CC(=O)N(C)[C@@H](CC)C(=O)N[C@@H]([C@@H](C)CC)C(=O)N(C)CC(=O)N(C)[C@H]3C/C=C\CCN(C3=O)[C@@H](Cc3ccc(C(F)(F)F)cc3)C(=O)N(C)CC(=O)N[C@@H](CCc3cc(F)c(C(F)(F)F)c(F)c3)C(=O)N2C1 [PP2062] | – | 0.0137 | – | – | – | AA (a compound having 20 or more is denoted as AA) | A (a compound having 10 or more and less than 20 is denoted as A) |
| CCO[C@@H]1C[C@H]2C(=O)NC3(CCCC3)C(=O)N(C)[C@@H](C3CCCC3)C(=O)N(C)[C@H](C(=O)N(C)C)CC(=O)N(C)[C@@H](C)C(=O)N[C@@H]([C@@H](C)CC)C(=O)N(C)CC(=O)N(C)[C@H]3C/C=C\CCN(C3=O)[C@@H](Cc3ccc(C(F)(F)F)cc3)C(=O)N(C)CC(=O)N[C@@H](CCc3cc(F)c(C(F)(F)F)c(F)c3)C(=O)N2C1 [PP1104] | – | 0.0446 | – | A (a compound having 10 or more and less than 20 is denoted as A) | A (a compound having 10 or more and less than 20 is denoted as A) | – | – |
| CCO[C@@H]1C[C@H]2C(=O)NC3(CC(C)(C)C3)C(=O)N(C)[C@@H](C(CC)CC)C(=O)N(C)[C@H](C(=O)N(C)C)CC(=O)N(C)[C@H]3CCCC/C=C/c4ccc(cc4)C[C@@H](C(=O)N(C)CC(=O)N[C@@H](CCc4ccc(Cl)c(Cl)c4)C(=O)N2C1)N1CC/C=C\C[C@@H](C1=O)N(C)C(=O)CN(C)C(=O)[C@H]([C@@H](C)CC)NC3=O [PP3045] | – | 0.0159 | – | AA (a compound having 20 or more is denoted as AA) | A (a compound having 10 or more and less than 20 is denoted as A) | – | – |
| CC[C@H](C)[C@@H]1NC(=O)[C@H](CC2CC2)N(C)C(=O)C[C@@H](C(=O)N(C)C)N(C)C(=O)[C@H](C2CCCC2)N(C)C(=O)C2(CCC2)NC(=O)[C@@H]2C[C@@H](C)CN2C(=O)[C@H](CCc2ccc(C(F)(F)F)c(OC)c2)NC(=O)CN(C)C(=O)[C@H](Cc2ccc(C)cc2)N2CC/C=C\C[C@@H](C2=O)N(C)C(=O)CN(C)C1=O [PP1863] | A (a compound having 10 or more and less than 20 is denoted as A) | 0.0888 | A (a compound having 10 or more and less than 20 is denoted as A) | – | – | – | – |
| CCCN1C(=O)[C@@H]2CCN2C(=O)CN(C)C(=O)[C@H]([C@@H](C)CC)NC(=O)[C@H](CC(C)C)N(C)C(=O)C[C@@H](C(=O)N2CCOCC2)N(C)C(=O)[C@H](C2CCCC2)N(C)C(=O)C2(CCCC2)NC(=O)[C@@H]2CCCN2C(=O)[C@H](CCc2cc(F)c(C(F)(F)F)c(F)c2)NC(=O)CN(C)C(=O)[C@@H]1Cc1ccc(C(F)(F)F)cc1 [PP0789] ([NMeL]I[Sar][Aze][NPrPhe(4-CF3)][Sar][hPhe(3,5-F2-4-CF3)]P[Ac5c][NMeGly(cPent)][NMeD]-Morpholide; lactam N-11) | – | 0.0125 | – | C (A compound having a KD ratio of 0.1 or more and less than 3 is denoted as C) | B (a compound having 3 or more and less than 10 is denoted as B) | – | – |
| CCO[C@@H]1C[C@H]2C(=O)NC3(CCCC3)C(=O)N(C)[C@@H](C3CCCC3)C(=O)N(C)[C@H](C(=O)N3CCOCC3)CC(=O)N(C)[C@@H](CC(C)C)C(=O)N[C@@H]([C@@H](C)CC)C(=O)N(C)CC(=O)N(C)CC(=O)N(CC)[C@@H](Cc3ccc(C)cc3)C(=O)N(C)CC(=O)N[C@@H](CCc3ccc(C(F)(F)F)c(Cl)c3)C(=O)N2C1 [PP0042] ([NMeL]I[Sar][Sar][NEtPhe(4-Me)][Sar][hPhe(3-Cl-4-CF3)][Hyp](Et)[Ac5c][NMeGly(cPent)][NMeD]-Morpholide; lactam N-11) | – | 0.0072 | – | C (A compound having a KD ratio of 0.1 or more and less than 3 is denoted as C) | C (A compound having a KD ratio of 0.1 or more and less than 3 is denoted as C) | – | – |
| CCCCN1C(=O)[C@@H]2CCN2C(=O)[C@H](C)N(C)C(=O)[C@H]([C@@H](C)CC)NC(=O)[C@H](CC(C)C)N(C)C(=O)C[C@@H](C(=O)N2CCOCC2)N(C)C(=O)[C@H](C2CCCC2)N(C)C(=O)C2(CCCC2)NC(=O)[C@@H]2CCCN2C(=O)[C@H](CCc2ccc(C(F)(F)F)c(Cl)c2)NC(=O)CN(C)C(=O)[C@@H]1Cc1ccc(C(F)(F)F)cc1 [PP0106] ([NMeL]I[NMeA][Aze][X18][Sar][hPhe(3-Cl-4-CF3)]P[Ac5c][NMeGly(cPent)][NMeD]-Morpholide; lactam N-11) | – | 0.0123 | – | C (A compound having a KD ratio of 0.1 or more and less than 3 is denoted as C) | B (a compound having 3 or more and less than 10 is denoted as B) | – | – |
| CCO[C@@H]1C[C@H]2C(=O)NC3(CCC3)C(=O)N(C)[C@@H](C3CCCC3)C(=O)N(C)[C@H](C(=O)N(C)C)CC(=O)N(C)[C@@H](CC)C(=O)N[C@@H]([C@@H](C)CC)C(=O)N(C)CC(=O)N(C)[C@H]3C/C=C\CCN(C3=O)[C@@H](Cc3ccc(C(F)(F)F)cc3)C(=O)N(C)CC(=O)N[C@@H](CCc3ccc(C(F)(F)F)c(Cl)c3)C(=O)N2C1 [PP0978] | – | 0.0227 | – | A (a compound having 10 or more and less than 20 is denoted as A) | B (a compound having 3 or more and less than 10 is denoted as B) | – | – |
| CCC[C@H]1C(=O)N[C@@H]([C@@H](C)CC)C(=O)N(C)CC(=O)N(C)[C@H]2C/C=C\CCN(C2=O)[C@@H](Cc2ccc(C(F)(F)F)cc2)C(=O)N(C)CC(=O)N[C@@H](CCc2cc(Cl)c3sccc3c2)C(=O)N2C[C@H](OCC)C[C@H]2C(=O)NC2(CC(C)(C)C2)C(=O)N(C)[C@@H](C(CC)CC)C(=O)N(C)[C@H](C(=O)N(C)C)CC(=O)N1C [PP2888] | – | 0.0142 | – | AA (a compound having 20 or more is denoted as AA) | A (a compound having 10 or more and less than 20 is denoted as A) | – | – |
